Results on three compounds are retold here after patent US20220226341A1, “Pharmaceutical Composition for Alzheimer's Disease” (Kyoto University, priority 2019, published 2022).

For this assay, the target named is CDK9/CycT1 (Homo sapiens, UniProt P50750). Briefly: CDK9 inhibitory activity, Off-chip Mobility Shift Assay (MSA). As to conditions: room temperature, one hour, read-out: IC50 value with respect to CDK9/CycT1. Type of assay: biochemical. The procedure: [Assay of CDK9 Inhibitory Activity]
Chain of CDK9/CycT1 (P50750 whole entry): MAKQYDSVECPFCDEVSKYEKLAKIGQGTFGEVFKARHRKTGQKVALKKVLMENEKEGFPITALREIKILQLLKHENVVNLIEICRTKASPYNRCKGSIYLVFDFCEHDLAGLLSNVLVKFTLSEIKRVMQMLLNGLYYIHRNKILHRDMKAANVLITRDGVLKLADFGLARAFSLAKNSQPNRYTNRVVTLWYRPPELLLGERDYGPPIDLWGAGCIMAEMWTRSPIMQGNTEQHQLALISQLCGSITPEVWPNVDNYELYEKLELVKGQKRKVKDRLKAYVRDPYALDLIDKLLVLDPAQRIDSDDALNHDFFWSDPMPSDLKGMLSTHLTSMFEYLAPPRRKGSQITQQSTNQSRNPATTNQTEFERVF
Chain of CDK9/CycT1 (O60563 whole entry partner): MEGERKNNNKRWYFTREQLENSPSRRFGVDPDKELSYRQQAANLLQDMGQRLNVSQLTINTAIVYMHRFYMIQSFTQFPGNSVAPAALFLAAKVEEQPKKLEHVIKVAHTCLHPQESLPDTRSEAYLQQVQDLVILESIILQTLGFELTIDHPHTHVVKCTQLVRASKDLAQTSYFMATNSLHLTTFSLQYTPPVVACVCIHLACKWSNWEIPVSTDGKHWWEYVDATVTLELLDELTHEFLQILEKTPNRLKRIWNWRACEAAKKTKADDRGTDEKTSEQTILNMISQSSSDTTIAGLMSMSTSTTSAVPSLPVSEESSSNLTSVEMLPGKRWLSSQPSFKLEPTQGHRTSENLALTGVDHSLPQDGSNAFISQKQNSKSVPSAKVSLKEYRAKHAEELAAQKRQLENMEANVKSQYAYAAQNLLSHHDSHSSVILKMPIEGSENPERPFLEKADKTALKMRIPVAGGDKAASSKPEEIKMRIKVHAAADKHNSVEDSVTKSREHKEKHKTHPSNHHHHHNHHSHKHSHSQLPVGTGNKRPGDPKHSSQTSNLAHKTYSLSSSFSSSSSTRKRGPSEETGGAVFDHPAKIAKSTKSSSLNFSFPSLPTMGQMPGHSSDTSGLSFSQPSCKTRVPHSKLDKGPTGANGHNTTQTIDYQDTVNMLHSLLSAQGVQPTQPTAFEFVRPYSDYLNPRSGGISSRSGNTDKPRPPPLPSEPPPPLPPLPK
The tests for confirming CDK9 inhibitory activity were carried out by the following procedure according to Off-chip Mobility Shift Assay (MSA).
A substrate/ATP/metal solution (4×) was prepared with use of a kit buffer (20 mM HEPES, 0.01% Triton X-100, 5 mM DTT, pH7.5). A kinase solution (2×) was prepared with use of an assay buffer.
2) The test substance solutions, the substrate/ATP/metal solution, and the kinase solution were mixed in wells of a polypropylene plate, and were caused to react at room temperature for one hour.
3) A termination buffer (QuickScout Screening Assist MSA; Cama Biosciences Inc.)
was added thereto to stop the reaction.
4) Substrate peptides and phosphorylated peptides in the reaction solutions were separated and quantified in LabChip™ System (PerkinElmer Co., Ltd.).
5) Kinase reaction activities were evaluated based on a product ratio (P/(P+S)) calculated from a peak height of the substrate peptide (S) and a peak height of the phosphorylated peptide (P).
For `O=C(Nc1cc(F)ccc1N1CCCCC1)c1ccncc1` [Compound 2], the IC50 worked out at 13.1 µM.
The value for `O=C(Nc1cc(F)ccc1N1CCCCCC1)c1ccncc1` [Compound 4] was 13.7 µM; that for `Fc1ccc(N2CCCCCC2)c(NC(=S)c2ccncc2)c1` [Compound 3] was 13.3 µM.
